From PMC5910032 (ACS synthetic biology, 2018) come the findings set out here.

Holding throughout (type): binding
Experiment [1] deals with FITC-E2 scFv VH W118G. Put plainly: SPR inhibition in solution assay.
Another experiment has as its system FITC-E2 scFv (wild-type). Description: fluorescein fluorescence quenching, titration of purified scFv.
The subject of experiment [2] is FITC-E2 scFv VH W118G. Description: dose-dependent rescue of fluorescein quenching.

The IC50 is the midpoint of a concentration-inhibition curve. Read a high IC50 as a need for much substance. As a reminder, the EC50 is the concentration giving half of the maximal effect. Take `O=C1OC2(c3ccc(O)cc3Oc3cc(O)ccc32)c2ccccc21` [fluorescein]: the half-inhibitory concentration (IC50) in the experiment with FITC-E2 scFv VH W118G [1] was 296 nM. This compound also had an EC50 in the experiment on FITC-E2 scFv (wild-type) of 23 to 27 nM.
In the experiment on FITC-E2 scFv VH W118G [2], `c1ccc2[nH]ccc2c1` [indole] displayed an EC50 of 220 µM.
